Values after ≈ are worked out from the molar mass of the structure shown. Where two headings read alike, the source gives them in different places.
Assays:
Assay in all cases: MIC, broth micro-dilution technique (CLSI)
[1] = test system: Escherichia coli MC4100 harboring the IMP4213; assay type: cell-based; settings: Escherichia coli, 22 h, read-out: MIC (μg/mL) E. coli, Table 1 protocol: serial 2-fold dilutions starting from 64 μg/ml; 35° C., 22 hours
Description: (§1) In vitro antimicrobial activity of each compound was determined by measuring minimal inhibitor concentrations (MICs) using the broth micro-dilution technique as approved by the Clinical and Laboratory Standards Institute (CLSI) (Methods for Dilution Antimicrobial Susceptibility Tests for Bacteria that Grow Aerobically; Approved Standard—Eighth Edition. CLSI document M07-A8. Wayne, Pa.: Clinical and Laboratory Standards; 2009). Antibacterial activity was measured against three strains of bacteria: a Methicillin Resistant Staphylococcus aureus strain USA 300 (NRS384); a MRSA COL (NRS100), another Methicillin Resistant Staphylococcus aureus strain; and a strain of Escherichia coli MC4100 harboring the IMP4213, which results in increased outer-membrane permeability (B Martin and Silhavy T. Imp/OstA is required for cell envelope biogenesis in Escherichia coli. (2002) Molecular Microbiology, 45(5), 1289-1302). Cells were inoculated onto plates of Trypyticase Soy Agar or Luria Agar respectively and grown at 35° C. for 20 hours. Inocula suspensions were prepared by scraping cells into 1 ml of testing media (cation adjusted Mueller Hinton Broth supplemented with 0.002% v/v Tween-80) and diluting to a final OD600 nm of 0.01.
(§2) Test compounds were prepared in DMSO at a concentration of 10 mg/ml. These compound stocks were diluted into testing media at a concentration of 64 μg/ml and serial 2-fold dilutions were made in the same media, in 96-well U bottom microtiter dishes, for a total of 10 compound concentrations (Table 1). In modified protocols (Table 2), compound stocks were diluted into testing media at a concentration of 4 μg/mL and serial 2-fold dilutions were made in the same media, in 96-well U bottom microtiter dishes, for a total of 10 compound concentrations. Inocula suspensions were added to the 2-fold serial dilutions of test compounds to a final density of OD OD600 nm of 0.0005 and incubated at 35° C. for 22 hours. […] The results from the protocol starting from a concentration of 64 µg/mL are listed in Table 1 and the results from the modified protocol are shown in Table 2.

[2] = test system: Methicillin Resistant Staphylococcus aureus strain USA 300 (NRS384); assay type: cell-based; settings: Staphylococcus aureus, 22 h, read-out: MIC (μg/mL) S. aureus
Description: as §1, §2

MRSA COL (NRS100) = assay type: cell-based, Staphylococcus aureus; settings: Staphylococcus aureus, 22 h, read-out: MIC (μg/mL) (COL)
Description: as §1, §2

[3] = Table 1 protocol: serial 2-fold dilutions starting from 64 μg/ml, 35° C., 22 hours

Row | Compound | MIC [1] [µg/mL] | MIC [2, 3] [µg/mL] | MIC (MRSA COL (NRS100); [3]) [µg/mL] | MIC [2] [µg/mL] | MIC (MRSA COL (NRS100)) [µg/mL]
1 | C[C@H](NC(=O)[C@@H]1Cc2ccc(O)c(c2)-c2cc(ccc2O)[C@H](N(C)C(=O)[C@H](CCCCN)NC(=O)c2ccc(-c3ccc(Cl)cc3)cc2)C(=O)N[C@@H](C)C(=O)N1)C(=O)/C=C/c1cc[nH]n1 [Compound 129] | > 64 | 16 (≈ 17.7 µM) | 4 (≈ 4.43 µM) | – | –
2 | C[C@H](NC(=O)[C@@H]1Cc2ccc(O)c(c2)-c2cc(ccc2O)[C@H](N(C)C(=O)[C@H](CCCCN)NC(=O)c2ccc(-c3ccc(Cl)cc3)cc2)C(=O)N[C@@H](C)C(=O)N1)C(=O)CCc1cc[nH]n1 [Compound 130] | > 64 | 16 (≈ 17.7 µM) | 8 (≈ 8.84 µM) | – | –
3 | C[C@H](NC(=O)[C@@H]1Cc2ccc(O)c(c2)-c2cc(ccc2O)[C@H](N(C)C(=O)[C@H](CCCCN)NC(=O)c2ccc(-c3ccc(Cl)cc3)cc2)C(=O)N[C@@H](C)C(=O)N1)C(=O)CCc1c[nH]cn1 [Compound 132] | > 64 | 32 (≈ 35.3 µM) | 8 (≈ 8.84 µM) | – | –
4 | C[C@H](NC(=O)[C@@H]1Cc2ccc(O)c(c2)-c2cc(ccc2O)[C@H](N(C)C(=O)[C@H](CCCCN)NC(=O)c2ccc(-c3ccc(Cl)cc3)cc2)C(=O)N[C@@H](C)C(=O)N1)B1O[C@@H]2C[C@@H]3C[C@@H](C3(C)C)[C@]2(C)O1 [Compound 133] | 2 (≈ 2.08 µM) | – | – | 2.5 (≈ 2.6 µM) | 1.5 (≈ 1.56 µM)
5 | C[C@@H]1NC(=O)[C@@H](N(C)C(=O)[C@H](CCCCN)NC(=O)c2ccc(-c3ccc(Cl)cc3)cc2)c2ccc(O)c(c2)-c2cc(ccc2O)C[C@@H](C(=O)N[C@@H](C)C(=O)c2nnn[nH]2)NC1=O [Compound 134] | 45 (≈ 51.2 µM) | 2.8 (≈ 3.18 µM) | 0.75 (≈ 0.853 µM) | – | –
6 | C[C@H](NC(=O)[C@@H]1Cc2ccc(O)c(c2)-c2cc(ccc2O)[C@H](N(C)C(=O)[C@H](CCCCN)NC(=O)c2ccc(-c3ccc(Cl)cc3)cc2)C(=O)N[C@@H](C)C(=O)N1)C(=O)N[C@H]1CCNC1=O [Compound 135] | 64 (≈ 70.4 µM) | > 64 | 32 (≈ 35.2 µM) | – | –
7 | C[C@@H]1NC(=O)[C@@H](N(C)C(=O)[C@H](CCCCN)NC(=O)c2ccc(-c3ccc(Cl)cc3)cc2)c2ccc(O)c(c2)-c2cc(ccc2O)C[C@@H](C(=O)N[C@@H](C)C(=O)N(C)[C@H]2CCNC2=O)NC1=O [Compound 136] | 16 (≈ 17.3 µM) | 8 (≈ 8.66 µM) | 2 (≈ 2.17 µM) | – | –
8 | C[C@H](NC(=O)[C@@H]1Cc2ccc(O)c(c2)-c2cc(ccc2O)[C@H](N(C)C(=O)[C@H](CCCCN)NC(=O)c2ccc(-c3ccc(Cl)cc3)cc2)C(=O)N[C@@H](C)C(=O)N1)C(=O)N[C@@H]1CCNC1=O [Compound 137] | 32 (≈ 35.2 µM) | 32 (≈ 35.2 µM) | 8 (≈ 8.8 µM) | – | –
9 | C[C@@H]1NC(=O)[C@@H](N(C)C(=O)[C@H](CCCCN)NC(=O)c2ccc(-c3ccc(Cl)cc3)cc2)c2ccc(O)c(c2)-c2cc(ccc2O)C[C@@H](C(=O)N[C@@H](C)C(=O)N(C)[C@@H]2CCNC2=O)NC1=O [Compound 138] | 64 (≈ 69.3 µM) | – | – | 32 (≈ 34.7 µM) | 17 (≈ 18.4 µM)
10 | COC(=O)C(=O)[C@H](C)NC(=O)[C@@H]1Cc2ccc(O)c(c2)-c2cc(ccc2O)[C@H](N(C)C(=O)[C@H](CCCCN)NC(=O)c2ccc(-c3ccc(Cl)cc3)cc2)C(=O)N[C@@H](C)C(=O)N1 [Compound 139] | 8 (≈ 9.2 µM) | – | – | 11 (≈ 12.7 µM) | 4 (≈ 4.6 µM)
11 | C[C@@H]1NC(=O)[C@@H](N(C)C(=O)[C@H](CCCCN)NC(=O)c2ccc(-c3ccc(Cl)cc3)cc2)c2ccc(O)c(c2)-c2cc(ccc2O)C[C@@H](C(=O)N[C@@H](C)C(=O)C(=O)O)NC1=O [Compound 140] | 8 (≈ 9.35 µM) | – | – | 23 (≈ 26.9 µM) | 8 (≈ 9.35 µM)
12 | C[C@@H]1NC(=O)[C@@H](N(C)C(=O)[C@H](CCCCN)NC(=O)c2ccc(-c3ccc(Cl)cc3)cc2)c2ccc(O)c(c2)-c2cc(ccc2O)C[C@@H](C(=O)N[C@@H](C)C(=O)C(=O)NCc2cc[nH]n2)NC1=O [Compound 141] | 32 (≈ 34.2 µM) | 8 (≈ 8.56 µM) | 4 (≈ 4.28 µM) | – | –

Reference: patent US10392422B2, “Macrocyclic broad spectrum antibiotics” (priority 2014, dated 2019)
